Biological target: human HSV DNA polymerase UL30 (Human herpesvirus 1 (strain 17) (HHV-1) (Human herpes simplex virus 1), UniProt P04293)
Test: biochemical
Settings: 625 pM HSV polymerase, 20 minutes at room temperature; read-out: HSV-polymerase Biochemical IC50

Going from CC(C)(O)Cn1nc(C(=O)NCc2ccc(C#N)cc2)c2c1C(=O)N(CC1(S(=O)(=O)C3CC3)CC1)CC2 [Example 230] to CCS(=O)(=O)C1(CN2CCc3c(C(=O)NCc4ccc(C#N)cc4)nn(CC(C)(C)O)c3C2=O)CC1 [Example 233], the IC50 rises from 34 nM to 150 nM (4.4-fold). The first is the more potent here.

First: Cn1nc(C(=O)NCc2ccc(C#N)cc2)c2c1C(=O)N(CC1(S(=O)(=O)C(C)(C)CN3CCC(O)C3)CC1)CC2 (stereo not drawn) [Example 68, N-(4-Cyanobenzyl)-6-((1-((1-(3-hydroxypyrrolidin-1-yl)-2-methylpropan-2-yl)sulfonyl)cyclopropyl)methyl)-1-methyl-7-oxo-4,5,6,7-tetrahydro-1H-pyrazolo[3,4-c]pyridine-3-carboxamide]
Second: Cn1nc(C(=O)NCc2ccc(C#N)cc2)c2c1C(=O)N(CC1(S(=O)(=O)N3CC[C@H](N)C3)CC1)CC2 [Example 142, (S)-6-((1-((3-Aminopyrrolidin-1-yl)sulfonyl)cyclopropyl)methyl)-N-(4-cyanobenzyl)-1-methyl-7-oxo-4,5,6,7-tetrahydro-1H-pyrazolo[3,4-c]pyridine-3-carboxamide]
The IC50 of the first is 13-fold lower: 21 nM for the first, 268 nM for the second.

Cn1nc(C(=O)NCc2ccc(C#N)cc2)c2c1C(=O)N(CC1(S(=O)(=O)NCCO)CC1)CC2 [Example 145, N-(4-Cyanobenzyl)-6-((1-(N-(2-hydroxyethyl)sulfamoyl)cyclopropyl)methyl)-1-methyl-7-oxo-4,5,6,7-tetrahydro-1H-pyrazolo[3,4-c]pyridine-3-carboxamide] and Cn1nc(C(=O)NCc2ccc(C#N)cc2)c2c1C(=O)N(CC1(S(=O)(=O)NCCCN)CC1)CC2 [Example 134, 6-((1-(N-(3-Aminopropyl)sulfamoyl)cyclopropyl)methyl)-N-(4-cyanobenzyl)-1-methyl-7-oxo-4,5,6,7-tetrahydro-1H-pyrazolo[3,4-c]pyridine-3-carboxamide] are within 1.5-fold of each other in IC50: 237 nM for the first, 282 nM for the second.

First: Cn1nc(C(=O)NCc2ccc(Cl)cc2)c2c1C(=O)N(CC1(S(=O)(=O)NCC(C)(C)O)CC1)CC2 [Example 152, N-(4-Chlorobenzyl)-6-((1-(N-(2-hydroxy-2-methylpropyl)sulfamoyl)cyclopropyl)methyl)-1-methyl-7-oxo-4,5,6,7-tetrahydro-1H-pyrazolo[3,4-c]pyridine-3-carboxamide]
Second: Cn1nc(C(=O)NCc2ccc(Cl)cc2)c2c1C(=O)N(CC1(S(=O)(=O)NCCO)CC1)CC2 [Example 143, N-(4-Chlorobenzyl)-6-((1-(N-(2-hydroxyethyl)sulfamoyl)cyclopropyl)methyl)-1-methyl-7-oxo-4,5,6,7-tetrahydro-1H-pyrazolo[3,4-c]pyridine-3-carboxamide]
The IC50 of the first is 2.4-fold higher: 827 nM for the first, 344 nM for the second.

First: Cn1nc(-c2nnn(Cc3ccc(C#N)cc3)n2)c2c1C(=O)N(CC1(S(=O)(=O)C3CC3)CC1)CC2 [Example 29, 4-((5-(6-((1-(Cyclopropylsulfonyl)cyclopropyl)methyl)-1-methyl-7-oxo-4,5,6,7-tetrahydro-1H-pyrazolo[3,4-c]pyridin-3-yl)-2H-tetrazol-2-yl)methyl)benzonitrile]
Second: Cn1nc(C(=O)OCc2ccc(C#N)cc2)c2c1C(=O)N(CC1(S(=O)(=O)C3CC3)CC1)CC2 [Example 24, 4-cyanobenzyl 6-((1-(cyclopropylsulfonyl)cyclopropyl)methyl)-1-methyl-7-oxo-4,5,6,7-tetrahydro-1H-pyrazolo[3,4-c]pyridine-3-carboxylate]
The IC50 of the first is 5.4-fold lower: 86 nM for the first, 467 nM for the second.

Compared with Cn1nc(C(=O)NCc2ccc(C#N)cc2)c2c1C(=O)N(CC1(S(=O)(=O)C(C)(C)CNC(=O)CN)CC1)CC2 [Example 74, 6-((1-((1-(2-Aminoacetamido)-2-methylpropan-2-yl)sulfonyl)cyclopropyl)methyl)-N-(4-cyanobenzyl)-1-methyl-7-oxo-4,5,6,7-tetrahydro-1H-pyrazolo[3,4-c]pyridine-3-carboxamide], Cn1nc(C(=O)NCc2ccc(C#N)cc2)c2c1C(=O)N(CC1(S(=O)(=O)C(C)(C)COCC(C)(C)O)CC1)CC2 [Example 86, N-(4-Cyanobenzyl)-6-((1-((1-(2-hydroxy-2-methylpropoxy)-2-methylpropan-2-yl)sulfonyl)cyclopropyl)methyl)-1-methyl-7-oxo-4,5,6,7-tetrahydro-1H-pyrazolo[3,4-c]pyridine-3-carboxamide] is 2.4-fold higher in IC50: 65 nM for the first, 159 nM for the second. The first is the more potent here.

Compared with N#Cc1ccc(CNC(=O)c2nn(CC3(CO)CC3)c3c2CCN(CC2(S(=O)(=O)C4CC4)CC2)C3=O)cc1 [Example 47, N-(4-Cyanobenzyl)-6-((1-(cyclopropylsulfonyl)cyclopropyl)methyl)-1-((1-(hydroxymethyl)cyclopropyl)methyl)-7-oxo-4,5,6,7-tetrahydro-1H-pyrazolo[3,4-c]pyridine-3-carboxamide], CS(=O)(=O)C1(CN2CCc3c(C(=O)NCc4ccc(C#N)cc4)nn(CC4(CO)CC4)c3C2=O)CC1 [Example 48, N-(4-Cyanobenzyl)-1-((1-(hydroxymethyl)cyclopropyl)methyl)-6-((1-(methylsulfonyl)cyclopropyl)methyl)-7-oxo-4,5,6,7-tetrahydro-1H-pyrazolo[3,4-c]pyridine-3-carboxamide] is 14-fold higher in IC50: 59 nM for the first, 801 nM for the second. The first is the more potent here.

Compared with Cc1ncccc1NS(=O)(=O)C1(CN2CCc3c(C(=O)NCc4ccc(C#N)cc4)nn(C)c3C2=O)CC1 [Example 161], COc1ncccc1NS(=O)(=O)C1(CN2CCc3c(C(=O)NCc4ccc(C#N)cc4)nn(C)c3C2=O)CC1 [Example 162] is 2.2-fold lower in IC50: 40 nM for the first, 18 nM for the second. The second is the more potent here.

Cn1nc(C(=O)NCc2ccc(C#N)c(F)c2)c2c1C(=O)N(CC1(S(=O)(=O)C3CC3)CC1)CC2 [Example 9, N-(4-Cyano-3-fluorobenzyl)-6-((1-(cyclopropylsulfonyl)cyclopropyl)methyl)-1-methyl-7-oxo-4,5,6,7-tetrahydro-1H-pyrazolo[3,4-c]pyridine-3-carboxamide] and Cn1nc(C(=O)NCc2ccc(Cl)cc2)c2c1C(=O)N(CC1(S(=O)(=O)C3CC3)CC1)CC2 [Example 4, N-(4-Chlorobenzyl)-6-((1-(cyclopropylsulfonyl)cyclopropyl)methyl)-1-methyl-7-oxo-4,5,6,7-tetrahydro-1H-pyrazolo[3,4-c]pyridine-3-carboxamide] are within 1.5-fold of each other in IC50: 45 nM for the first, 48 nM for the second.

Compared with CNC(=O)C(C)(C)S(=O)(=O)C1(CN2CCc3c(C(=O)NCc4ccc(Cl)cc4)nn(C)c3C2=O)CC1 [Example 110, N-(4-Chlorobenzyl)-1-methyl-6-((1-((2-methyl-1-(methylamino)-1-oxopropan-2-yl)sulfonyl)cyclopropyl)methyl)-7-oxo-4,5,6,7-tetrahydro-1H-pyrazolo[3,4-c]pyridine-3-carboxamide], C[C@@H](NC(=O)c1nn(C)c2c1CCN(CC1(S(=O)(=O)C(C)(C)CO)CC1)C2=O)c1ccc(C#N)cc1 [Example 55, (R)-N-(1-(4-Cyanophenyl)ethyl)-6-((1-((1-hydroxy-2-methylpropan-2-yl)sulfonyl)cyclopropyl)methyl)-1-methyl-7-oxo-4,5,6,7-tetrahydro-1H-pyrazolo[3,4-c]pyridine-3-carboxamide] is higher in IC50: 166 nM for the first, > 25000 nM for the second. The first is the more potent here.

With Cn1nc(C(=O)NCc2ccc(Cl)s2)c2c1C(=O)N(CC1(S(=O)(=O)C3CC3)CC1)CC2 [Example 10, N-((5-Chlorothiophen-2-yl)methyl)-6-((1-(cyclopropylsulfonyl)cyclopropyl)methyl)-1-methyl-7-oxo-4,5,6,7-tetrahydro-1H-pyrazolo[3,4-c]pyridine-3-carboxamide] the IC50 was 641 nM.

Source: US20250353820A1, “ANTIVIRAL PYRAZOLOPYRIDINONE COMPOUNDS” (Novartis AG, priority 2019, published 2025)
